Results taken from patent US4812573A, “Pharmaceutically active compounds” (SmithKline & French Laboratories, Ltd., priority 1986, dated 1989).
Structures can show the parent of a compound that is named as a salt.

Assays:
TXA2 receptors = target: T1, TXA2 receptors (Homo sapiens, UniProt P21731); experiment: human platelet binding assay ([^125 I]PTA-OH receptor ligand); settings: 50% inhibition of specific [^125 I]PTA-OH binding
T1 construct: endogenous in cells; host or cells: human platelets
T1 sequence (P21731 1-343): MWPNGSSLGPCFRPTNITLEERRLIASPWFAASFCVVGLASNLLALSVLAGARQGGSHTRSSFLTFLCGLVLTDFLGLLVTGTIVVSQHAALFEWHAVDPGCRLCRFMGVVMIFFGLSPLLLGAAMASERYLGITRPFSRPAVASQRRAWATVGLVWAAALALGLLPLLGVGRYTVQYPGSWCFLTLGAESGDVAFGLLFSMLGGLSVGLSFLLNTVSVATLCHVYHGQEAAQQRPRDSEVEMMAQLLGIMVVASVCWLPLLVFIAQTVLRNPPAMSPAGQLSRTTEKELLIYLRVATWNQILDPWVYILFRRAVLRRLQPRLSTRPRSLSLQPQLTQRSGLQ
Description: As indicated above, compounds of the formula (I) have biological activity that is indicative of an ability to antagonise TXA2 receptors. […] Exp. Ther., 1985, 235(3), 729-734 where [^125 I]PTA-OH was used as the receptor ligand. The IC50 values represent the concentration which produces a 50% inhibition of specific [^125 I]PTA-OH binding.

human washed platelets = experiment: human platelet aggregation assay (submaximal U46619 induced aggregation); assay type: cell-based
Description: As indicated above, compounds of the formula (I) have biological activity that is indicative of an ability to antagonise TXA2 receptors.
(b) human platelet aggregation assay.
HUMAN PLATELET AGGREGATION ASSAY
The aggregation assay used human washed platelets and was based on that described by Born (Nature, 1962, vol. 194, 927-929). The assay determines a concentration of test compound which inhibits a submaximal U46619 induced aggregation by 50% (IC50). U46619 is the thromboxane A2 -agonist (9,11-dideoxy-11α,9α-epoxymethanoprostaglandin F2α).

Row | IC50 (TXA2 receptors) [µM] | IC50 (human washed platelets) [µM] | Structure (SMILES)
1 | 0.7 | – | O=C(O)C#CCN1CCc2ccc(S(=O)(=O)Nc3cccc(Cl)c3)cc2C1 [Example 8, Sodium 4-[7-(3-chlorophenylsulphamoyl)-1,2,3,4-tetrahydroisoquinolin-2-yl]but-2-ynoate]
2 | 3.8 | 34 | O=C(O)CCCCCN1CCc2ccc(S(=O)(=O)Nc3cccc(Cl)c3)cc2C1 [Example 4, 6-[7-(3-Chlorophenylsulphamoyl)-1,2,3,4-tetrahydroisoquinolin-2-yl]hexanoicacid]
3 | 40.7 | – | O=C(O)CCCCN1CCc2ccc(NS(=O)(=O)c3ccccc3)cc2C1 [Example 12, 5-[7-Phenylsulphonamido-1,2,3,4-tetrahydroisoquiolin-2-yl]valeric acid]
4 | 3.1 | – | CCOC(=O)CCCCN1CCc2ccc(S(=O)(=O)Nc3cccc(Cl)c3)cc2C1 [Example 3a, ethyl-5-[7-(3-chlorophenylsulphamoyl)-1,2,3,4-tetrahydroisoquinolin-2-yl]valerate hydrochloride]
5 | 7.8 | – | O=C(O)CCCN1CCc2ccc(S(=O)(=O)Nc3ccc(Cl)cc3)cc2C1 [Example 15, 4-[7-(4-Chlorophenylsulphamoyl)-1,2,3,4-tetrahydroisoquinolin-2-yl]butyric acid]
6 | 79 | – | O=C(O)CCCN1CCc2c(cccc2NS(=O)(=O)c2ccccc2)C1 [Example 9, 4-[5-(Phenylsulphonamido)-1,2,3,4-tetrahydroisoquinolin-2-yl]butyric acid hydrochloride]
7 | 1.06 | 3.9 | O=C(O)CCCCN1CCc2ccc(S(=O)(=O)Nc3cccc(Cl)c3)cc2C1 [Example 3b, 5-[7-(3-Chlorophenylsulphamoyl)-1,2,3,4-tetrahydroisoquinolin-2-yl]valeric acid]
8 | 9.2 | – | O=C(O)CCCCN1CCc2ccc(S(=O)(=O)Nc3ccccc3)cc2C1 [Example 6, 5-(7-Phenylsulphamoyl-1,2,3,4-tetrahydroisoquinolin-2-yl)valeric acid]
9 | 232 | – | O=C(O)CCCN1CCc2cc(NS(=O)(=O)c3ccccc3)ccc2C1 [Example 11, 4-[6-Phenylsulphonamido-1,2,3,4-tetrahydroisoquinolin-2-yl]butyric acid]
10 | 3.75 | – | O=C(O)CCCN1CCc2ccc(S(=O)(=O)Nc3ccccc3)cc2C1 [Example 5, 4-(7-Phenylsulphamoyl-1,2,3,4-tetrahydroisoquinolin-2-yl)butyric acid]
11 | 134 | – | O=C(O)CCCCN1CCc2c(cccc2NS(=O)(=O)c2ccccc2)C1 [Example 10, 5-[(5-Phenylsulphonamido)-1,2,3,4-tetrahydroisoquinolin-2-yl]valeric acid hydrochloride]
12 | 1.02 | 9.3 | O=C(O)CCCN1CCc2ccc(S(=O)(=O)Nc3cccc(Cl)c3)cc2C1 [Example 2, 4-[7-(3-Chlorophenylsulphamoyl)-1,2,3,4-tetrahydroisoquinolin-2-yl]butyric acid]
13 | 84 | – | O=C(O)CN1CCc2ccc(NS(=O)(=O)c3ccccc3)cc2C1 [Example 13, 2-[(7-Phenylsulphonamido)-1,2,3,4-tetrahydroisiquinolin-2-yl]-acetic acid hydrochloride]
14 | 49.3 | 103 | O=C(O)CCN1CCc2ccc(S(=O)(=O)Nc3cccc(Cl)c3)cc2C1 [Example 1, 3-[7-(3-Chlorophenylsulphamoyl)-1,2,3,4-tetrahydroisoquinolin-2-yl]propionic acid]
15 | 2.8 | – | O=C(O)CCCN1CCc2ccc(S(=O)(=O)Nc3cccc(C(F)(F)F)c3)cc2C1 [Example 7, 4-[7-(3-Trifluoromethylphenylsulphamoyl)-1,2,3,4-tetrahydroisoquinolin-2-yl]butyric acid]
16 | 98 | – | CCCCC(C(=O)O)N1CCc2ccc(NS(=O)(=O)c3ccccc3)cc2C1 (centres unmarked) [Example 14, 2-[(7-Phenylsulphonamido)-1,2,3,4-tetrahydroisoquinolin-2-yl]-caproic acid hydrochloride]
